Test results reported in patent US5516797A, “Immunosuppressive compounds” (Vertex Pharmaceuticals, Incorporated, priority 1994, dated 1996).

Legend:
[1] = test system: T-cell clone stimulated with antibody to TCR and CD2; assay: T-Cell Hybridoma + TCR/CD2 proliferation (Table 5, assay 2); assay type: cell-based; conditions: [3H]TdR incorporation, estimated
Protocol: 2) Assay similar to above, but using T-cell clone stimulated with antibody to the T-cell receptor (TCR) and antibody to CD2. Stimulation is measured by incorporation of radioactive thymidine [(^3 H)TdR] into proliferating cells, with an uninhibited control signal of 23,000 cpm. IC50 values are estimated from inhibitions of proliferation observed at various drug concentrations.

[2] = test system: CTLLs; conditions: cited from earlier work
[3] = test system: cytotoxic T-cell; conditions: in vitro; cited from earlier work
[4] = test system: mixed lymphocyte culture; conditions: in vitro; cited from earlier work
[5] = test system: IL-2 production; conditions: in vitro; cited from earlier work
[6] = test system: human peripheral blood lymphocytes; assay: Human PBL + OKT3 proliferation (Table 5, assay 1); assay type: cell-based; conditions: Lymphocyte, [3H]TdR incorporation, estimated
Protocol: 1) Assay similar to Yoshimura, N. et al., Transplantation 47:356-359 (1989). Assay uses fresh human peripheral blood lymphocytes isolated by Ficoll-Hypaque density centrifugation, stimulated bythe OKT3 antibody (anti-CD3) which stimulates via interaction with CD3. Stimulation is measured by incorporation of radioactive thymidine [(^3 H)TdR] into proliferating cells, with an uninhibited control signal of 48,000-75,000 cpm. IC50 values are estimated from inhibitions of proliferation observed at various drug concentrations.

[7] = test system: T-cell hybridoma; assay: Apoptosis: activation-induced (anti-CD3) cell death in T-cell hybridoma (Table 5, assay 3); assay type: cell-based; conditions: for Apoptosis (activation-induced cell death): at 1 μg/ml
Text: 3) Assay according to Shi, Y. et al., Nature 339:625-626 (1989). The assay uses a T-cell hybridoma similar to that described. The assay measures activation-induced (anti-CD3) cell death (evaluated by counting viable cells after staining as described) in a T-cell hybridoma that mimics the effect known to occur in immature thymocytes.

[8] = test system: CTLL cells; assay: CTLL Proliferation + IL-2 (Table 5, assay 4); assay type: cell-based, murine; conditions: for IC50: Mus musculus, CTLL, exogenous IL-2, [3H]TdR incorporation
Protocol: 4) Assay according to DuMont, F. et al., J. Immunol. 144:251-258 (1990). The assay measures the stimulation of CTLL cells in response to IL-2. Proliferation is measured by incorpoation of (^3 H)TdR. […] In this assay, exogenous IL-2 is provided to overcome this block.
Fresh peripheral blood lymphocytes (PBLs) from LeukoPak cells or whole blood from random normal blood donors (tested HIV-negative and hepatitis negative) are isolated and separated by density centrifugation over Histopaque 1077 (Sigma Chemical Co., St. Louis, Mo.). The murine CTLL cytotoxic T cell line and the human Jurkat T cell line are from ATCC (CTLL-2 ATCC TIB214, JURKAT CLONE E6-1 ATCC TIBl52). The human allogeneic B cell lines used for activation of the fresh PBLs are EBV-transformed lymphocytes from normal healthy adult donors with two completely different HLAhaplotypes. All cell lines were routinely tested for the presence of Mycolasma contamination using the GibcoMycotect test kit and are Mycolasma-free. Culture medium consksts of RPMI 1640 (Gibco, Grand Island, N.Y.) containing penicillin (50 U/ml) and streptomycin (50 μg/ml), L-glutamine 2 mM, 2 mercaptoethanol (5×10^-5), 10% heat-inactivated FCS and 10 mM HEPES.

[9] = test system: PPIase; conditions: cited from earlier work
[10] = test system: binding protein (FKBP); conditions: cited from earlier work

C=CC[C@@H]1/C=C(\C)C[C@H](C)C[C@H](OC)[C@H]2O[C@@](O)(C(=O)C(=O)N3CCCC[C@H]3C(=O)O[C@H](/C(C)=C/[C@@H]3CC[C@@H](O)[C@H](OC)C3)[C@H](C)[C@@H](O)CC1=O)[C@H](C)C[C@@H]2OC [FK-506]
IC50 [1]: < 1 µg/mL | IL-2 dependent proliferation of the CTLLs [2]: do not | inhibition of cytotoxic T-cell generation, concentration relative to cyclosporin A [3]: 100 times lower concentration than cyclosporin A | inhibition of mixed lymphocyte culture response, concentration relative to cyclosporin A [4]: 100 times lower concentration than cyclosporin A | inhibition of IL-2 production, concentration relative to cyclosporin A [5]: 100 times lower concentration than cyclosporin A | IC50 [6]: < 1 µg/mL | activity in activation-induced cell death assay (in words) [7]: inhibit this cell death | Apoptosis (activation-induced cell death) [7]: Blocks | IC50 [8]: > 1 µg/mL | inhibition of PPIase activity [9]: inhibits PPIase activity | binding to FKBP [10]: binds to a binding protein (FKBP) distinct from cyclophilin

CO[C@H]1C[C@@H]2CC[C@@H](C)[C@@](O)(O2)C(=O)C(=O)N2CCCC[C@H]2C(=O)O[C@H]([C@H](C)C[C@@H]2CC[C@@H](O)[C@H](OC)C2)CC(=O)[C@H](C)/C=C(\C)[C@@H](O)[C@@H](OC)C(=O)[C@H](C)C[C@H](C)/C=C/C=C/C=C/1C [Rapamycin]
IC50 [1]: < 1 µg/mL | IL-2 dependent proliferation of the CTLLs [2]: inhibits IL-2 dependent proliferation of the CTLLs | IC50 [6]: < 1 µg/mL | activity in activation-induced cell death assay (in words) [7]: inactive | Apoptosis (activation-induced cell death) [7]: Inactive | activity in CTLL / IL-2 assay (in words) [8]: active | IC50 [8]: ~0.01 µg/mL
